Test results: patent publication US9334286B2, “Pharmacologically active compounds” (Cancer Research Technology Limited, priority 2012, dated 2016)
Where two headings read alike, the source gives them in different places.

Biological target: full length MPS1 (Homo sapiens (Human), UniProt P33981)
Assay: Measurement of inhibition of MPS1 kinase (Caliper EZ reader, fluorescent labelled peptide H236)
Assay type: biochemical
Procedure: The reaction was carried out for 60 min at room temperature and stopped by the addition of buffer (10 μl) containing 20 mM EDTA, 0.05% (v/v) Brij-35, in 0.1M HEPES-buffered saline (Free acid, Sigma, UK). The plate was read on a Caliper EZ reader II (Caliper Life Sciences).
The reader provides a Software package (‘Reviewer’) which converts the peak heights into % conversion by measuring both product and substrate peak and also allows selection of control well which represent 0% and 100% inhibition respectively. The % inhibition of the compounds is calculated relative to the means of selected control wells. IC50s are determined by testing the compounds at a range of concentrations from 0.25 nM-100 μM. The % inhibitions at each concentration are then fitted to a 4 parameter logistic fit: y=(a+((b−a)/(1+((c/x^d)))) where a=asym min, b=asym max, c=IC50 and d=hill coefficient

[1] = full length MPS1 12.5 nM or 3 nM, peptide H236 5 μM, ATP 10 μM, 60 min at room temperature

Chain of full length MPS1 (P33981 whole entry): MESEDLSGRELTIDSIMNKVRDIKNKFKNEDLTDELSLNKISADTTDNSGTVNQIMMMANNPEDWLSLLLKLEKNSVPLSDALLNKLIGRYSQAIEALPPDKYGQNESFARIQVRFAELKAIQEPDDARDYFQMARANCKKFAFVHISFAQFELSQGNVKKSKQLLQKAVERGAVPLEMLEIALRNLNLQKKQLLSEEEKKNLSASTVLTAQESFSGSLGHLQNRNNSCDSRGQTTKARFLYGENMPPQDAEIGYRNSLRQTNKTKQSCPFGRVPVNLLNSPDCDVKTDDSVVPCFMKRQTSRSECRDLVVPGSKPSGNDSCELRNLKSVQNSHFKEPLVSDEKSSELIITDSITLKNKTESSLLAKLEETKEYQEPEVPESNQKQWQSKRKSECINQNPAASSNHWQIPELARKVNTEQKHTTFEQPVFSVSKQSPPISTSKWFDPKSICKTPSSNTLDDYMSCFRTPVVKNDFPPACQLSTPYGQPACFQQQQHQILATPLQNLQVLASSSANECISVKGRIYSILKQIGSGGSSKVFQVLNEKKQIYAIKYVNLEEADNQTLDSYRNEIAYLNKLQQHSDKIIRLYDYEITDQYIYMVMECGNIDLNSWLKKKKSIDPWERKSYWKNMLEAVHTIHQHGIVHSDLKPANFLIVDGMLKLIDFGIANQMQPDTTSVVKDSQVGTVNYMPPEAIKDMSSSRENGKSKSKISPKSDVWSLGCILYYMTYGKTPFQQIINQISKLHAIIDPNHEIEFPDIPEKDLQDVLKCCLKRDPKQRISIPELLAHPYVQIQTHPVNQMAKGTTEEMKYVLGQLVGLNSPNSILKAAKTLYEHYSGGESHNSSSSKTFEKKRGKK

SMILES	IC50 [1]	IC50
CNC(=O)c1ccc2cnc(Nc3ccc(-c4cnc(C)n4C)cc3OC)cc2c1 [Example 90, 3-((4-(1,2-Dimethyl-1H-imidazol-5-yl)-2-methoxyphenyl)amino)-N-methylisoquinoline-6-carboxamide]	5 nM	
COc1cc(-c2cnc(C)n2C)ccc1Nc1cc2cc(-c3cnn(CC4COC4)c3)ccc2cn1 [Example 37, N-(4-(1,2-Dimethyl-1H-imidazol-5-yl)-2-methoxyphenyl)-6-(1-(oxetan-3-ylmethyl)-1H-pyrazol-4-yl)isoquinolin-3-amine]	5 nM	
COc1cc(-c2cnc(C)n2C)ccc1Nc1cc2cc(-c3cncs3)ccc2cn1 [Example 9, N-(4-(1,2-dimethyl-1H-imidazol-5-yl)-2-methoxyphenyl)-6-(thiazol-5-yl)isoquinolin-3-amine]	4 nM	
COc1cc(-c2cnc(C)n2C)ccc1Nc1cc2cc(-c3cnn(C(C)C)c3)ccc2cn1 [Example 15, N-(4-(1,2-dimethyl-1H-imidazol-5-yl)-2-methoxyphenyl)-6-(1-isopropyl-1H-pyrazol-4-yl)isoquinolin-3-amine]	3 nM	
COc1cc(-c2cnc(C)n2C)ccc1Nc1cc2cc(-c3ccc(C)nc3)ccc2cn1 [Example 11, N-(4-(1,2-dimethyl-1H-imidazol-5-yl)-2-methoxyphenyl)-6-(6-methylpyridin-3-yl)isoquinolin-3-amine]	2 nM	
COc1cc(-c2cnc(C)n2C)ccc1Nc1cc2cc(-c3cnn(CC4COC(C)(C)O4)c3)ccc2cn1 (racemic) [Example 40, 6-(1-((2,2-Dimethyl-1,3-dioxolan-4-yl)methyl)-1H-pyrazol-4-yl)-N-(4-(1,2-dimethyl-1H-imidazol-5-yl)-2-methoxyphenyl)isoquinolin-3-amine]	6 nM	
COc1nc(-c2cnc(C)n2C)ccc1Nc1cc2cc(-c3cnn(CC(C)(C)O)c3)ccc2cn1 [Example 56, 1-(4-(3-(6-(1,2-Dimethyl-1H-imidazol-5-yl)-2-methoxypyridin-3-ylamino)isoquinolin-6-yl)-1H-pyrazol-1-yl)-2-methylpropan-2-ol]	3 nM	
COCC(O)Cn1cc(-c2ccc3cnc(Nc4ccc(C(=O)N5CC(OC)C5)cc4OC)cc3c2)cn1 (racemic) [Example 78, (4-((6-(1-(2-Hydroxy-3-methoxypropyl)-1H-pyrazol-4-yl)isoquinolin-3-yl)amino)-3-methoxyphenyl)(3-methoxyazetidin-1-yl)methanone]	17 nM	
COCCn1cc(-c2ccc3cnc(Nc4ccc(-c5cnc(CO)n5C)cc4OC)cc3c2)cn1 [Example 25, (5-(3-Methoxy-4-((6-(1-(2-methoxyethyl)-1H-pyrazol-4-yl)isoquinolin-3-yl)amino)phenyl)-1-methyl-1H-imidazol-2-yl)methanol]		28 nM
COc1cc(-c2nncn2C)ccc1Nc1cc2cc(-c3cnn(CC(C)(C)O)c3)ccc2cn1 [Example 41, 1-(4-(3-((2-Methoxy-4-(4-methyl-4H-1,2,4-triazol-3-yl)phenyl)amino)isoquinolin-6-yl)-1H-pyrazol-1-yl)-2-methylpropan-2-ol]	1 nM	
CCOc1cc(-c2nncn2C)ccc1Nc1cc2cc(-c3cnn(CC4(O)CCC4)c3)ccc2cn1 [Example 88, 1-((4-(3-((2-Ethoxy-4-(4-methyl-4H-1,2,4-triazol-3-yl)phenyl)amino)isoquinolin-6-yl)-1H-pyrazol-1-yl)methyl)cyclobutanol]	7 nM	
COc1cc(C(=O)N2CCS(=O)(=O)CC2)ccc1Nc1cc2cc(-c3cnn(CC(C)(C)O)c3)ccc2cn1 [Example 65, (1,1-Dioxidothiomorpholino)(4-((6-(1-(2-hydroxy-2-methylpropyl)-1H-pyrazol-4-yl)isoquinolin-3-yl)amino)-3-methoxyphenyl)methanone]	2 nM	
COc1cc(-c2cnc(C)n2C)ccc1Nc1cc2cc(-c3cncc(C)c3)ccc2cn1 [Example 26, N-(4-(1,2-dimethyl-1H-imidazol-5-yl)-2-methoxyphenyl)-6-(5-methylpyridin-3-yl)isoquinolin-3-amine]	10 nM	
COCCNC(=O)c1ccc(Nc2cc3cc(-c4cnn(CC(C)(C)O)c4)ccc3cn2)c(OC)c1 [Example 62, 4-((6-(1-(2-Hydroxy-2-methylpropyl)-1H-pyrazol-4-yl)isoquinolin-3-yl)amino)-3-methoxy-N-(2-methoxyethyl)benzamide]	3 nM	
CCOc1cc(-c2nncn2C)ccc1Nc1cc2cc(-c3cnn(CC(C)(C)O)c3)ccc2cn1 [Example 48, 1-(4-(3-(2-Ethoxy-4-(4-methyl-4H-1,2,4-triazol-3-yl)phenylamino)isoquinolin-6-yl)-1H-pyrazol-1-yl)-2-methylpropan-2-ol]	2 nM	
COc1cc(-c2cnc(C)n2C)ccc1Nc1cc2cc(-c3cnn(C(C)C(C)(C)O)c3)ccc2cn1 (racemic) [Example 68, 3-(4-(3-((4-(1,2-Dimelhyl-1H-imidazol-5-yl)-2-methoxyphenyl)amino)isoquinolin-6-yl)-1H-pyrazol-1-yl)-2-methylbutan-2-ol]	6 nM	

SMILES	IC50 [1]	IC50
COc1cc(C(=O)N2CCN(C)CC2)ccc1Nc1cc2cc(-c3cnn(CC(C)(C)O)c3)ccc2cn1 [Example 66]	2 nM	
CCC(O)Cn1cc(-c2ccc3cnc(Nc4ccc(C(=O)N5CC(OC)C5)cc4OC)cc3c2)cn1 (racemic) [Example 71, (4-((6-(1-(2-Hydroxybutyl)-1H-pyrazol-4-yl)isoquinolin-3-yl)amino)-3-methoxyphenyl)(3-methoxyazetidin-1-yl)methanone]	4 nM	
COCC(Cn1cc(-c2ccc3cnc(Nc4ccc(C(=O)N5CC(OC)C5)cc4OC)cc3c2)cn1)OC (racemic) [Example 79, (4-((6-(1-(2,3-Dimethoxypropyl)-1H-pyrazol-4-yl)isoquinolin-3-yl)amino)-3-methoxyphenyl)(3-methoxyazetidin-1-yl)methanone]	9 nM	
COc1cc(-c2cnc(C)n2C)ccc1Nc1cc2cc(-c3cnn(CC4(O)CCC4)c3)ccc2cn1 [Example 43, 1-((4-(3-((4-(1,2-Dimethyl-1H-imidazol-5-yl)-2-methoxyphenyl)amino)isoquinolin-6-yl)-1H-pyrazol-1-yl)methyl)cyclobutanol]	3 nM	
COc1cc(-c2cnc(C)n2C)ccc1Nc1cc2cc(-c3cnc(C)n3C)ccc2cn1 [Example 5, 6-(1,2-Dimethyl-1H-imidazol-5-yl)-N-(4-(1,2-dimethyl-1H-imidazol-5-yl)-2-methoxyphenyl)-isoquinolin-3-amine]	5 nM	
COc1cc(-c2cnc(C)n2C)ccc1Nc1cc2cc(-c3cnn(C4CCOCC4)c3)ccc2cn1 [Example 39, N-(4-(1,2-Dimethyl-1H-imidazol-5-yl)-2-methoxyphenyl)-6-(1-(tetrahydro-2H-pyran-4-yl)-1H-pyrazol-4-yl)isoquinolin-3-amine]	6 nM	
COCCn1cc(-c2ccc3cnc(Nc4ccc(-c5cnc(C)n5C)cc4OC)cc3c2)cn1 [Example 14, N-(4-(1,2-dimethyl-1H-imidazol-5-yl)-2-methoxyphenyl)-6-(1-(2-methoxyethyl)-1H-pyrazol-4-yl)isoquinolin-3-amine]	20 nM	
COCCn1c(-c2ccc(Nc3cc4cc(-c5cnn(CC(C)(C)O)c5)ccc4cn3)c(OC)c2)cnc1C [Example 35, 1-(4-(3-((2-Methoxy-4-(1-(2-methoxyethyl)-2-methyl-1H-imidazol-5-yl)phenyl)amino)-isoquinolin-6-yl)-1H-pyrazol-1-yl)-2-methylpropan-2-ol]	3 nM	
COc1cc(-c2cnc(C)n2C)ccc1Nc1cc2cc(-c3cnn(CC(C)O)c3)ccc2cn1 (single isomer, unassigned) [Example 99, 1-(4-(3-((4-(1,2-dimethyl-1H-imidazol-5-yl)-2-methoxyphenyl)amino)isoquinolin-6-yl)-1H-pyrazol-1-yl)propan-2-ol]	5 nM	
COc1cc(C(=O)N(C)C)ccc1Nc1cc2cc(-c3cnn(CC(C)(C)O)c3)ccc2cn1 [Example 60, 4-((6-(1-(2-Hydroxy-2-methylpropyl)-1H-pyrazol-4-yl)isoquinolin-3-yl)amino)-3-methoxy-N,N-dimethylbenzamide]	2 nM	
COCCn1cc(-c2ccc3cnc(Nc4ccc(-c5cnc(C)n5CCOC)cc4OC)cc3c2)cn1 [Example 31, N-(2-Methoxy-4-(1-(2-methoxyethyl)-2-methyl-1H-imidazol-5-yl)phenyl)-6-(1-(2-methoxyethyl)-1H-pyrazol-4-yl)isoquinolin-3-amine]	2 nM	
COc1cc(-c2ncnn2C)ccc1Nc1cc2cc(-c3cnn(CC(C)(C)O)c3)ccc2cn1 [Example 64, 1-(4-(3-((2-Methoxy-4-(1-methyl-1H-1,2,4-triazol-5-yl)phenyl)amino)isoquinolin-6-yl)-1H-pyrazol-1-yl)-2-methylpropan-2-ol]	1 nM	
COc1cc(-c2cnc(C)n2C)ccc1Nc1cc2cc(-c3cccnc3)ccc2cn1 [Example 16, N-(4-(1,2-dimethyl-1H-imidazol-5-yl)-2-methoxyphenyl)-6-(pyridin-3-yl)isoquinolin-3-amine]	3 nM	
COc1cc(C(=O)N2CC(OC)C2)ccc1Nc1cc2cc(-c3cnn(CC4(O)CCC4)c3)ccc2cn1 [Example 87, (4-((6-(1-((1-Hydroxycyclobutyl)methyl)-1H-pyrazol-4-yl)isoquinolin-3-yl)amino)-3-methoxy-phenyl)(3-methoxyazetidin-1-yl)methanone]	8 nM	
COc1cc(S(=O)(=O)N(C)C)ccc1Nc1cc2cc(-c3cnn(CC(C)(C)O)c3)ccc2cn1 [Example 80, 4-((6-(1-(2-Hydroxy-2-methylpropyl)-1H-pyrazol-4-yl)isoquinolin-3-yl)amino)-3-methoxy-N,N-dimethylbenzenesulfonamide]	3 nM	
